According to PMC10283052, “Intranasal delivery of mitochondrial protein humanin rescues cell death and promotes mitochondrial function in Parkinson's disease” (Theranostics, 2023):

System: MPTP mouse model of PD
Experiment: MPTP mouse model of PD, intranasal HN
Type: in vivo
Conditions: intranasal HN 0.1 and 5 mg/kg
Description: A mouse model of PD was generated using the neurotoxin MPTP-HCl (Sigma-Aldrich, St. Louis, MO, USA), as previously described. Seven- to eight-week-old male C57BL/6J mice were injected with MPTP (20 mg/kg/day) for five consecutive days for the subacute delivery of MPTP. The mice in the control group received the same volume of phosphate buffer saline (PBS).
For intranasal HN treatment, the synthetic HN peptide was delivered according to a procedure reported by Capsoni et al. The synthetic HN peptide was diluted in ddH2O to a concentration of 0.1 and 5 mg/kg for mice (total volume of 40 μL) at 37 ℃ with mild stirring. The mice were held firmly in one hand in a supine position with their head at 90°. Synthetic HN was administered in the form of 5-μL drops over 20 min in alternating nostrils every 3 min. After administration, the heads of the mice were held in the same position to prevent loss of the applied solution from the nares.
To stain the mouse brain tissue samples, transcardial perfusion was performed using PBS and 4% paraformaldehyde in PBS. The brain and trigeminal ganglia were removed, post-fixed using 4% paraformaldehyde in PBS, and stored in a 30% sucrose solution at 4 ℃ until they sank. Coronal sections were prepared (thickness: 10 µm) using a sliding microtome. After blocking with 5% BSA, the samples were incubated with the appropriate primary antibody as mentioned above. After incubation with the primary antibodies, the tissue samples were incubated with Alexa Fluor 594- or 488-conjugated antibodies (Thermo Fisher Scientific) for immunofluorescence or with secondary biotinylated anti-rabbit IgG (H+L) (Vector Laboratories, Burlingame, CA, USA) for immunohistochemistry. […] Mitochondrial network morphology was further assessed using the FIJI/ImageJ software as described previously.
Mouse brain tissue samples and cells were homogenized in radioimmunoprecipitation assay (RIPA) buffer (Cell Signaling, Danvers, MA, USA) in the presence of a protease and phosphatase inhibitor cocktail (Thermo Fisher Scientific). […] The results were analyzed using the ImageJ densitometry system. […]

## humanin (MAPRGFSCLLLLTSEIDLPVKRRA; Humanin; UniProt Q8IVG9 1-24, looked up) [HN, mitochondria-derived peptide encoded by the mitochondrial genome, synthesized by Fmoc-based SPPS at GL Biochem]
MPTP 20 mg/kg/day for 5 days
  motor function, pole test: steady motor improvements in a dose-dependent manner
dose-dependent, TH staining, stereology
  TH expression, dopaminergic neurons of substantia nigra pars compacta: significantly restored TH expression
Three independent blots
  TH protein in striatum lysates, western blot: confirmed the impact of intranasal delivery of HN on protecting TH^+ dopaminergic neurons
